# Reference: PMC5344518, “Anti-trypanosomal activity of non-peptidic nitrile-based cysteine protease inhibitors” (PLoS Neglected Tropical Diseases, 2017)
# Where two headings read alike, the source gives them in different places. Marks after values point to notes of the source that are not given here.
# Assays:
# [1] = tested on: LLC-MK2 cells; assay: Cytotoxicity in LLC-MK2 cells; assay type: cell-based, monkey; conditions: % cytotoxicity in LLC-MK2 cells at 128 μM; standard deviation (N = 6) in parentheses
# Excerpt: Table 2 Anti-trypanosomal activity of cysteine protease inhibitors. | column: Cytotox LLC-MK2 ^c
# [2] = tested on: Balb/C 3T3 clone A31 cells; assay: MTT colorimetric cytotoxicity assay; assay type: cell-based, mouse; conditions: % cytotoxicity in Balb/C 3T3 clone A31 cells at 128 μM; standard deviation (N = 8) in parentheses
# Experimental: Inhibition values were determined in the cell-based assay as previously described. […] Cells were plated at a concentration of 10^5 cell/mL in 96-well plates and incubated for 24 h. […] The cell viability was assessed during 24, 48 and 72 h using the MTT (Sigma-Aldrich) reagent, with an incubation time of 3 h. Formazan crystals were dissolved using a solubility reagent composed of DMSO, glacial acetic acid and […] for 1 h. The readout was obtained using Biotek Synergy HT plate reader at 570 nm. Benznidazole was used as control. This assay was done in quadruplicate in two independent experiments. Statistical analyses were made in GraphPad Prism 5. Concentration-response curves were fitted for the best compounds and the statistical parameters are provided with the graphs in S9 Fig in the supplemental material.
# [3] = tested on: amastigote forms of T. cruzi CL Brener strain; assay: Anti-trypanosomal activity assay (beta-galactosidase reporter, infected LLC-MK2 cells); assay type: cell-based; conditions: Trypanosoma cruzi
# Experimental: Assays were performed against amastigote forms of T. cruzi CL Brener strain, which expresses β-galactosidase derived from Escherichia coli, infecting monkey kidney (LLC-MK2) cells as described. Previously, LLC-MK2 host cells were cultivated in 96-wells microplates (10^3 cells/well). […] Then, the wells were washed with PBS to remove the extracellular parasites and the tested compounds were added in the final concentrations of 0.031, 0.125, 0.5, 2.0, 8.0, 32.0, 128 and 512 μM. After this, the microplates were incubated at 37°C, in CO2 atmosphere (5%), for 5 days. Then, 10 μL of FluoReporter lacZ/Galactosidase Quantitation Kit (Molecular Probes, ThermoFisher Scientific) were added and after 30 minutes the fluorometric reaction was read in a microplate reader (Synergy H1, Biotek) at 386 nm excitation and 448 nm emission. The metabolism of the substrate is directly correlated with the amount of β-galactosidase activity and, therefore, the number amastigotes. The percentage of activity for each compound was determined from the following formula: %activity = 100 –{[(X-PC)/(NC-PC)]x100}, where the optical density values of the samples (X), the positive controls (PC) and negative controls (NC) were used. Culture medium alone was used as positive control (PC) and cells with medium and 0.6% DMSO (v/v) as negative control (NC). All assays were performed in triplicate with two independent experiments.
# [4] = target: T1, Recombinant cruzain (Trypanosoma cruzi, UniProt P25779); assay: Enzyme kinetic assay for cruzain (Z-FR-AMC hydrolysis); assay type: biochemical; conditions: pKi = -log10(Ki/M); uncertainty in parentheses; 37°C, pH 5.5
# T1 construct: consisting of the catalytic domain of cruzipain but excluding the carboxy-terminal extension; made in house
# Experimental: Recombinant cruzain, consisting of the catalytic domain of cruzipain but excluding the carboxy-terminal extension, was expressed and purified as previously described. Enzyme kinetic assays for cruzain were carried out at 37°C in 200 μL of a solution containing 100 mM acetate buffer pH 5.5, 300 mM NaCl, 5 mM dithiothreitol (DTT), 5% v/v dimethyl sulfoxide (DMSO), 0.01% v/v Triton X-100 and 0.15 nM cruzain, using Corning® 96-well black flat bottom microplates. (S)-N-(1-((cyanomethyl)amino)-1-oxo-3-phenylpropan-2-yl)benzamide was used as a positive control. The rate of the reaction was monitored using a Biotek Synergy HT plate reader through the fluorescence emission at 460 nm (excitation at 355 nm) due to the hydrolysis of the substrate Z-Phe-Arg-7-amido-4-methylcoumarin (Z-FR-AMC, Sigma-Aldrich). The enzyme stock aliquot was rapidly thawed at 37°C and kept on ice until activation, in which it was incubated for 20 min. in the assay buffer (100 mM acetate pH 5.5 and 5 mM DTT) followed by additional 2 min. incubation with inhibitors before the reaction was started by the addition of the substrate.
# Visual inspection and a pre-reading of plate wells were performed to check for possible precipitation and background fluorescence, respectively. Fluorescence emission spectra were also recorded for all inhibitors, using the same excitation wavelength (355 nm) as for the fluorometric assay. […] The reaction was started by the addition of varying concentrations of the substrate and the wells monitored for a total of 5 minutes of reaction. The initial velocities of the substrate hydrolysis under first-order reaction were calculated by Gen5 Biotek software based on the linear-regression coefficient from the data fitting of Relative Fluorescence Unit (mRFU) as a function of time (min).
# Each experiment was performed in duplicates for each compound being tested. A control measurement in absence of inhibitor (KM) was carried out for each setup plate and the kinetic affinity constants (Ki) were calculated from non-linear fit of Michaelis-Menten curves to the data of initial velocities as a function of eight different concentrations of the substrate Z-FR-AMC from 30.0–0.8 μM. All inhibitors were evaluated in two different concentrations, which were chosen based on a previous screening (percentage of inhibition) at 1.7 μM substrate (~KM). SigmaPlot (v. 10.0) was employed for the non-linear fit and the kinetic parameters determination.
# [5] = target: T2, cathepsin L (Homo sapiens, UniProt P07711); assay: Enzyme kinetic assay for cathepsin L; assay type: biochemical; conditions: pKi = -log10(Ki/M); uncertainty in parentheses; 37°C, pH 5.5
# Experimental: (§1) Enzyme kinetic assays for cathepsin L were performed in a similar manner to the cruzain assays at 37°C in 200 μL of a solution containing 100 mM acetate buffer pH 5.5, 300 mM NaCl, 1 mM dithiothreitol (DTT), 1 mM EDTA, 5% v/v dimethyl sulfoxide (DMSO), 0.01% v/v Triton X-100 and 0.30 nM cathepsin L, using Corning® 96-well black flat bottom microplates. Using the QFRET technology, compounds 9–12 were tested for inhibition of cathepsin L-mediated cleavage of a synthetic peptide Z-Phe-Arg-AMC (10 μM final concentration) using 0.1 nM [final] human Cat L (prepared in-house). […]
# [6] = target: T2, cathepsin L; conditions: pIC50 = -log10(IC50/M); cited from earlier work
# [7] = tested on: Cathepsin K; conditions: pIC50 = -log10(IC50/M); cited from earlier work
# [8] = tested on: Cathepsin S; conditions: pIC50 = -log10(IC50/M); cited from earlier work
# [9] = tested on: Cathepsin B; conditions: pIC50 = -log10(IC50/M); cited from earlier work
# [10] = target: T3, human Cat L (Homo sapiens, UniProt P07711); assay: Cat L inhibition assay (QFRET, Z-Phe-Arg-AMC cleavage); assay type: biochemical; conditions: pIC50 = -log10(IC50/M); determined using the Cat L inhibition assay method of ref. 24; pH 6.4; read-out: Cathepsin L pIC50 (converted)
# T3 construct: made in house
# Experimental: as §1
# [11] = 120 h, pEC50 = -log10(EC50/M), T. cruzi CL Brener amastigotes in LLC-MK2 cells, 5 days, read-out: pEC50 (anti-trypanosomal activity) (converted)
# [12] = LLC-MK2, 0.125 μM, standard deviation (N = 6) in parentheses, read-out: %activity at 0.125 μM
# [13] = LLC-MK2, 0.5 μM, standard deviation (N = 6) in parentheses, read-out: %activity at 0.5 μM
# [14] = LLC-MK2, 2 μM, standard deviation (N = 6) in parentheses, read-out: %activity at 2 μM
# [15] = LLC-MK2, 8 μM, standard deviation (N = 6) in parentheses, read-out: %activity at 8 μM
# [16] = LLC-MK2, T. cruzi CL Brener strain, read-out: EC50 (anti-trypanosomal activity)
# T1 sequence (P25779 123-337 limits assumed): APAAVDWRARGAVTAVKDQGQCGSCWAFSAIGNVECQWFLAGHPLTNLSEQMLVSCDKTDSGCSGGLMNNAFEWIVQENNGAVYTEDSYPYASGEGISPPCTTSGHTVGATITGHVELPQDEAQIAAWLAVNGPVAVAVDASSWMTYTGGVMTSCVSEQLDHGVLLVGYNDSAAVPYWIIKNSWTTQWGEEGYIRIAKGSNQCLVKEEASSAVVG
# T2 sequence (P07711 114-333, species assumed): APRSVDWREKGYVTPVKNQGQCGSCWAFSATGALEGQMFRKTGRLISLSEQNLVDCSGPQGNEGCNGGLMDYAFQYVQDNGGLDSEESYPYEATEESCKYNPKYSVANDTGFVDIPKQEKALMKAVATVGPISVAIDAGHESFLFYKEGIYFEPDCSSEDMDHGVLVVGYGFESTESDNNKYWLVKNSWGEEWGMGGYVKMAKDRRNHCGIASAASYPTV
# T3 sequence (P07711 114-333): as the sequence (P07711 114-333, species assumed) above
structure (smiles),measurement,setting,value
"O=C(Cn1ccnc1[N+](=O)[O-])NCc1ccccc1 [Compound 1, benznidazole]",Cytotox LLC-MK2,[1],41 (8) %
same,Cytotox Balb/C 3TC,[2],0 (0) %
same,EC50,[3]; [11],2.51 µM
same,inhibition at 0.125 µM,[3]; [12],3%
same,inhibition at 0.5 µM,[3]; [13],7%
same,inhibition at 2 µM,[3]; [14],33%
same,inhibition at 8 µM,[3]; [15],59%
"N#CC1(NC(=O)[C@H](Cc2ccccc2)N[C@H](c2ccccc2)C(F)(F)F)CC1 [Compound 5, (S)-N-(1-cyanocyclopropyl)-3-phenyl-2-(((R)-2,2,2-trifluoro-1-phenyl-ethyl)amino)propanamide]",Ki,[4],2.51 µM
same,Cytotox LLC-MK2,[1],0 (0) %
same,Ki,[5],0.794 µM
same,Cytotox Balb/C 3TC,[2],1 (7) %
same,EC50,[3]; [11],0.126 µM
same,inhibition at 0.125 µM,[3]; [12],44%
same,inhibition at 0.5 µM,[3]; [13],55%
same,inhibition at 2 µM,[3]; [14],62%
same,inhibition at 8 µM,[3]; [15],70%
same,EC50,[3]; [16],0.12 µM
N#CCNC(=O)[C@@H]1CCCC[C@H]1C(=O)N1CCCCC1 [Compound 7],Cathepsin L pIC50,[6],< 4 ^e
same,Ki,[4],7.94 µM
same,Cytotox LLC-MK2,[1],4 (3) %
same,Cathepsin K pIC50,[7],7.1 ^e
same,Cathepsin S pIC50,[8],5.7 ^e
same,Cathepsin B pIC50,[9],5.1 ^e
same,Cytotox Balb/C 3TC,[2],2 (7) %
same,inhibition at 0.125 µM,[3]; [12],0%
same,inhibition at 0.5 µM,[3]; [13],2%
same,inhibition at 2 µM,[3]; [14],9%
same,inhibition at 8 µM,[3]; [15],12%
N#CCNC(=O)[C@@H]1CCCC[C@H]1C(=O)N1CCN(c2ccccc2)CC1 [Compound 8],Cathepsin L pIC50,[6],< 4 ^e
same,Ki,[4],5.01 µM
same,Cytotox LLC-MK2,[1],29 (8) %
same,Cathepsin K pIC50,[7],8.1 ^e
same,Cathepsin S pIC50,[8],6.0 ^e
same,Cathepsin B pIC50,[9],6.3 ^e
same,Cytotox Balb/C 3TC,[2],0 (0) %
same,inhibition at 0.125 µM,[3]; [12],1%
same,inhibition at 0.5 µM,[3]; [13],7%
same,inhibition at 2 µM,[3]; [14],21%
same,inhibition at 8 µM,[3]; [15],35%
CS(=O)(=O)c1ccc(N2CCN(C(=O)[C@@H]3CCCC[C@H]3C(=O)NC3(C#N)CC3)CC2)cc1 [Compound 9],Ki,[4],5.01 µM
same,Cytotox LLC-MK2,[1],0 (0) %
same,IC50,[10],> 10 µM
same,Cathepsin K pIC50,[7],7.7 ^g
same,Cathepsin S pIC50,[8],5.7 ^g
same,Cathepsin B pIC50,[9],5.6 ^g
same,Cytotox Balb/C 3TC,[2],3 (7) %
same,inhibition at 0.125 µM,[3]; [12],6%
same,inhibition at 0.5 µM,[3]; [13],15%
same,inhibition at 2 µM,[3]; [14],30%
same,inhibition at 8 µM,[3]; [15],33%
COc1ccc(N2CCN(C(=O)[C@@H]3CCCC[C@H]3C(=O)NC3(C#N)CC3)[C@H](C)C2)cc1OC [Compound 10],Ki,[4],1.26 µM
same,Cytotox LLC-MK2,[1],15(3) %
same,IC50,[10],> 10 µM
same,Cathepsin K pIC50,[7],8.4 ^g
same,Cathepsin S pIC50,[8],5.8 ^g
same,Cathepsin B pIC50,[9],5.7 ^g
same,Cytotox Balb/C 3TC,[2],0 (0) %
same,inhibition at 0.125 µM,"[3]; LLC-MK2, read-out: %activity at 0.125 μM",6%
same,inhibition at 0.5 µM,"[3]; LLC-MK2, read-out: %activity at 0.5 μM",22%
same,inhibition at 2 µM,"[3]; LLC-MK2, read-out: %activity at 2 μM",26%
same,inhibition at 8 µM,"[3]; LLC-MK2, read-out: %activity at 8 μM",28%
COc1cc(N2CCN(C(=O)[C@@H]3CCCC[C@H]3C(=O)NC3(C#N)CC3)[C@H](C)C2)ccc1C1CC1 [Compound 11],Ki,[4],2.51 µM
same,Cytotox LLC-MK2,[1],36 (7) %
same,IC50,[10],> 10 µM
same,Cathepsin K pIC50,[7],8.5 ^g
same,Cathepsin S pIC50,[8],5.9 ^g
same,Cathepsin B pIC50,[9],5.9 ^g
same,Cytotox Balb/C 3TC,[2],0 (0) %
same,EC50,[3]; [11],0.251 µM
same,inhibition at 0.125 µM,[3]; [12],33%
same,inhibition at 0.5 µM,[3]; [13],62%
same,inhibition at 2 µM,[3]; [14],76%
same,inhibition at 8 µM,[3]; [15],83%
same,EC50,[3]; [16],0.25 µM
Cc1nn(C)c2cc(N3CCN(C(=O)[C@@H]4CCCC[C@H]4C(=O)NC4(C#N)CC4)[C@H](C)C3)ccc12 [Compound 12],Ki,[4],3.16 µM
same,Cytotox LLC-MK2,[1],8 (2) %
same,IC50,[10],> 10 µM
same,Cathepsin K pIC50,[7],8.0 ^g
same,Cathepsin S pIC50,[8],5.9 ^g
same,Cathepsin B pIC50,[9],6.1 ^g
same,Cytotox Balb/C 3TC,[2],0 (0) %
same,EC50,[3]; [11],1.26 µM
same,inhibition at 0.125 µM,[3]; [12],20%
same,inhibition at 0.5 µM,[3]; [13],40%
same,inhibition at 2 µM,[3]; [14],45%
same,inhibition at 8 µM,[3]; [15],50%
same,EC50,[3]; [16],1.3 µM
